Where two headings read alike, the source gives them in different places.
Columns and labels:
IL-6 [1] = assay: IL-6 ELISA in HIVIL (iKCs co-cultured with iHeps, LPS, 48 hr); type: cell-based, human; conditions: HIVIL; for IL-6 response: result in words
Excerpt: (§1) Human iPSC cell line iPS (IMR90)-4 was purchased from WiCell Research Institute (Madison, WI), and maintained with a feeder-free method according to the instruction from […] Technologies (Vancouver, BC, Canada). The protocol of differentiation towards iKCs and iHeps as described previously with slight modification ([Tasnim et al., 2019]; [Cai et al., 2012]), respectively. […] More details are provided in Supplementary Methods. After differentiation, iKCs was harvested using 0.05 % trypsin-EDTA (Gibco, Waltham, Massachusetts, USA), while iHeps were dissociated with TrypLE^TM (Gibco). iHep suspension was further filtered through a 40 µm cell strainer to remove extracellular matrix clumps. Cell suspension was centrifuged at 1000 rpm for 5 min. For co-culture set up, tissue culture plates were coated with Rat tail collagen I (Gibco) diluted 100-fold in 0.02 N acetic acid, and incubated at 37 °C for 1 h and washed 3 times with PBS. According to the protocol optimized by [Tasnim et al. (2019)], iKCs was firstly seeded at a density of 14,000 per well on 96-well plate with Advanced DMEM (plus supplements) containing 5 % FBS. On the following day, iHeps were added at a density of 35,000 per well in Williams’ Medium E (plus supplements) (iHep: iKCs ratio = 2.5: 1). This reflects the physiological ratio of these cells in vivo under inflammatory conditions ([Tasnim et al., 2021]). Fresh media containing drugs was applied to co-cultures the next day. 50,000 cells were seeded to establish iHeps monoculture. THP-1 cells were kindly obtained from Dr. Eliza Fong and cultured as described by [Zeng et al. (2015)]. Details provided in Supplementary Methods.
(§2) Stock solutions of drugs were prepared in dimethyl sulfoxide (DMSO) and dissolved in medium prior to use. […] For these two drugs, the highest DMSO concentration was 1 %. Supernatant was collected at 48 hr for measurement of cytokines, and remaining cells were subjected to viability assay prior to lysis for RNA extraction.
(§3) Enzyme-linked immunosorbent assay (ELISA) for measurement of cytokines: Interleukin-6 (IL-6), interleukin-10 (IL-10) and tumor necrosis factor alpha (TNFα) levels in the media were measured using the corresponding human-based ELISA kits (Abcam, Cambridge, United Kingdom) according to manufacturer’s instructions. The cytokine production from dosed cells was normalized with the viability value from the same well. The normalized cytokine level upon drug treatments was further presented as percentage of DMSO+LPS. […] This normalization approach has been used in previous studies (Rose et al. 2016).

TNFα [2] = assay: TNFα ELISA in HIVIL (iKCs co-cultured with iHeps, LPS, 48 hr); type: cell-based, human
Excerpt: as §1, §2, §3

[3] = tested on: HIVIL (iKCs co-cultured with iHeps); assay: AlamarBlue cell viability in HIVIL
Procedure: as §2

IL-6 [4] = assay: IL-6 production of iKC mono-culture; type: cell-based, human; conditions: result in words
Procedure: (§4) Enzyme-linked immunosorbent assay (ELISA) for measurement of cytokines: Interleukin-6 (IL-6), interleukin-10 (IL-10) and tumor necrosis factor alpha (TNFα) levels in the media were measured using the corresponding human-based ELISA kits (Abcam, Cambridge, United Kingdom) according to manufacturer’s instructions. The cytokine production from dosed cells was normalized with the viability value from the same well. The normalized cytokine level upon drug treatments was further presented as percentage of DMSO+LPS. Normalization to viability per well ensures that any changes in cytokines are not due to changes in cell numbers upon drug treatment and normalization to DMSO+LPS allows better comparison between different batches of experiments. This normalization approach has been used in previous studies (Rose et al. 2016).

[5] = Cammett et al. 2009, Mendes et al. 2014, cited from earlier work
TNFα [6] = conditions: ref Shaw et al. 2010; Zou et al. 2009; Bekker et al. 2012; Gandhi et al. 2013; Heidari et al. 2019; cited from earlier work
[7] = FDA-labeling information; ref Chen et al. 2016; cited from earlier work
[8] = binary classification by human hepatotoxicity; ref Thakkar et al. 2020; cited from earlier work
iKCs mono-culture = assay: Cell viability of iKCs mono-culture; parameters: dose or concentration left out as unconfirmed
Procedure: (§5) Cell viability assays: Cell viability was examined with AlamarBlue^TM cell viability assay (Thermo Fisher Scientific Inc.) according to manufacturer’s instructions. Briefly, cells were exposed to AlamarBlue^TM working solution, which was diluted 10-fold using PBS containing 2 mg/mL of glucose, for 1 hour. Color change in the solution was measured using fluorescence (Ex: 530nm, Em: 590nm) in Tecan Microplate Reader M1000 PRO. The viability of dosed cells was presented as percentage of the corresponding vehicle control.

NF-κB = tested on: NF-κB; parameters: method as in Wahl et al. 1998; conditions: ref Wahl et al. 1998; cited from earlier work
IL-6 [9] = tested on: IL-6; parameters: method as in ref Hassan et al. 2016; Giustarini et al. 2019; Higuchi et al. 2012; Dik et al. 2018; conditions: ref Hassan et al. 2016; Giustarini et al. 2019; Higuchi et al. 2012; Dik et al. 2018; cited from earlier work
iHeps = assay: RNA-Seq of iHeps from mono-culture and HIVIL; type: cell-based, human; conditions: regardless of culture conditions, result in words
Excerpt: Subsequent analyses compared gene fold-changes of treated samples against their respective vehicle controls: "m" and "c" indicate mono- and co-culture, and "–" and "+" represent the absence or presence of LPS. […] However, this is only applicable for co-cultures where downstream effects can be traced back to cytokine changes, and not in monocultures where significant upstream cytokine changes are not observed.
RNA extraction was done using TRIzol and analyzed on a Tapestation 4200 to determine RNA Integrity Number (RIN). Only samples with RIN > 8 were sequenced. Illumina Stranded mRNA multiplexing was done with unique 96 dual indices, and all samples sequenced on the same lane of NovaSeq 6000 S4 flowcell. Data normalization was performed using DESeq2 v1.32.0 ([Love et al., 2014]) on the R programming language v4.1.0 ([R Core Team, 2021]; [R Team, 2021]). Gene enrichment analysis was done with fgsea v1.18 ([Korotkevich et al., 2021]) with gene sets downloaded from MSigDB and KEGG pathway visualization done via pathview v1.32 ([Kanehisa et al., 2021]; [Luo and Brouwer, 2013]). Other plots were produced using ggplot2 v3.3.5 and scatterplot3d v0.3-41 ([Ligges and Maechler, 2003]). The RNA-Seq dataset has been deposited in NCBI under accession number GSE189320.
RNA seq and analysis: After 48 hr of drug treatment, iHeps cultured in mono-culture and HIVIL were both subjected to TrypLE^TM dissociation, and subsequently sorted with magnetic separation with the CD163 Microbead kit (Miltenyi Biotec, Bergisch Gladbach, Germany) to obtain only iHeps. Flow-through was collected, pelleted down and snap-frozen in liquid nitrogen, before storage at -80°C. Lysates were sent to the Genome Research Informatics and Data Science platform (Agency for Science, Technology and Research, Singapore). RNA extraction was done using TRIzol and analyzed on a Tapestation 4200 to determine RNA Integrity Number (RIN). All sequenced samples included for further analysis had RIN > 8. Illumina Stranded mRNA multiplexing was done with unique 96 dual indices, and all samples sequenced on the same lane of NovaSeq 6000 S4 flowcell. Sequenced reads were trimmed for adaptor sequence using Trim Galore v0.6.4, then aligned to human genome build GRCh38 using STAR_2.6.1d. Aligned reads are summarized into count matrices using featureCounts v1.6.4 with the gene annotation file from GENCODE v37.
Data normalization was performed using DESeq2 v1.32.0 (Love et al. 2014) on the R programming language v4.1.0 (Core Team 2021; Team 2021). Gene enrichment analysis was done with fgsea v1.18 (Korotkevich et al. 2021) with gene sets downloaded from MSigDB and KEGG pathway visualization done via pathview v1.32 (Kanehisa et al. 2021; Luo and Brouwer 2013). Other plots were produced using ggplot2 v3.3.5 and scatterplot3d v0.3-41 (Ligges and Maechler 2003). The RNA-Seq dataset has been deposited in NCBI under accession number GSE189320.

IL-6 [10] = assay: IL-6 ELISA in iPSC(F4)-derived HIVIL; type: cell-based, human; conditions: result in words
Procedure: as §4

iPSC(F4)-derived HIVIL = assay: Cell viability in iPSC(F4)-derived HIVIL; type: cell-based, human; conditions: result in words
Procedure: as §5

[11] = ref in each cell: Ademisoye et al. 2018, Xu et al. 2008, Agabeyoglu and Incecayir 2009, Rojanasthien et al. 2007, Reunanen et al. 1992, Li et al. 2002, Hong-mei et al. 2013, Bareggi et al. 1987, Jiang et al. 2008

IC50 (IL-6 [1]; Homo sapiens, LPS, 48 hr) [µM]	SMILES	group by drug-dependent IL-6 production (IL-6 [1])	dose at which TNFα induction was observed (TNFα [2]) [µM]	IC50 ([3]; Homo sapiens, 48 h, read-out: IC50: viability) [µM]	IL-6 / cytokine production in iKC mono-culture (IL-6 [4])	Cmax [5, 11] [nM]	Cmax ([5]; ref in each cell: Xu et al. 2008) [nM]	Reported in-vivo (murine) responses: TNFα (TNFα [6])	DILIrank [7]	DILIst [8]	decrease in viability in iKCs (iKCs mono-culture) [%]	IL-6 response (IL-6 [1])	Reported human responses: NF-κB (NF-κB)	Reported in-vivo (murine) responses: IL-6 (IL-6 [9])	change in cell viability ([3]; HIVIL, result in words)	viability profiles among iHeps, iKCs and HIVIL ([3]; comparison of mono-cultures and co-culture)	IL-6 transcription in iHeps (iHeps)	IL-6 production (IL-6 [10])	cell viability (iPSC(F4)-derived HIVIL)
12.9	CN(C)CCCN1c2ccccc2Sc2ccc(Cl)cc21 [CPZ, Chlorpromazine]	dose-dependent inhibition	25	34.4	higher than that in the HIVIL model	800	800	TNFα↑ (Gandhi et al. 2013)	less	1	50	–	–	–	–	–	–	–	–
–	O=C(O)c1cc(/N=N/c2ccc(S(=O)(=O)Nc3ccccn3)cc2)ccc1O [SSZ, sulfasalazine]	no dose-dependent changes	–	–	–	17600	–	–	–	–	–	no change	NF-κB inhibitor (Wahl et al. 1998)	IL-6↓ (Dik et al. 2018)	–	–	–	–	–
–	C[C@H]1COc2c(N3CCN(C)CC3)c(F)cc3c(=O)c(C(=O)O)cn1c23 [LVX, levofloxacin]	no dose-dependent changes	–	–	–	–	–	–	most	1	–	did not cause any change	–	–	did not cause any change	similar	remained unchanged	did not influence	did not influence

Reference: paper PMC13289212, “HIVIL: A human in vitro inflammatory liver model recapitulates immune-associated drug effects with high predictivity” (NAM journal, 2025)
